The target in this assay is T1, PDE5A1 (Homo sapiens, UniProt O76074).
T1 construct: from tissue; host or cells: human platelets from fresh donor blood (10,000 x g supernatant of sonicated lysate)
Description: Inhibition of type 5 phosphodiesterase (PDE5) activity, modified SPA test with human platelet lysate. The format is biochemical. The settings on record: 0.5 μM cGMP, read-out: PDE5A1 inhibitory values [measured as −log IC50 (mol/l)] (converted). An outline of the steps:
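Enzyme source is lysate from human platelets (10,000 g supernatant). Compound preincubated 5 min at 37° C in Tris pH 7.4 containing 1 μM motapizone and 10 nM of a PDE2 inhibitor. Reaction started with 0.5 μM cGMP ([3H] tracer) and run 15 min; SPA read-out, IC50 by non-linear regression.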

Molecules are shown by their SMILES.

On to `COCC(=O)N1CCC(NC(=O)c2c(C)[nH]c3c(-c4cc(F)c(OC)cc4OCC4CC4)ncnc23)CC1` [Example E133, 4-[2-(Cyclopropylmethoxy)-5-fluoro-4-methoxyphenyl]-N-[1-(methoxyacetyl)piperidin-4-yl]-6-methyl-5H-pyrrolo[3,2-d]pyrimidine-7-carboxamide], for which the IC50 was less than 1 nM.

For the compound `CCOC(=O)N1CCC(NC(=O)c2c(C)[nH]c3c(-c4cc(F)c(OC)cc4OCC4CC4)ncnc23)CC1` [Example E134, Ethyl 4-[({4-[2-(cyclopropylmethoxy)-5-fluoro-4-methoxyphenyl]-6-methyl-5H-pyrrolo[3,2-d]pyrimidin-7-yl}carbonyl)amino]piperidine-1-carboxylate], the IC50 was less than 1 nM.

As to `COc1cc(OCC2CC2)c(-c2ncnc3c(C(=O)N[C@H]4CC[C@H](NC(C)=O)CC4)c(C)[nH]c23)cc1F` [Example E135, N-(trans-4-Acetamidocyclohexyl)-4-[2-(cyclopropylmethoxy)-5-fluoro-4-methoxyphenyl]-6-methyl-5H-pyrrolo[3,2-d]pyrimidine-7-carboxamide], the IC50 was less than 1 nM.

As to `CCC(=O)N[C@H]1CC[C@H](NC(=O)c2c(C)[nH]c3c(-c4cc(F)c(OC)cc4OCC4CC4)ncnc23)CC1` [Example E136, 4-[2-(Cyclopropylmethoxy)-5-fluoro-4-methoxyphenyl]-6-methyl-N-[trans-4-(propionylamino)cyclohexyl]-5H-pyrrolo[3,2-d]pyrimidine-7-carboxamide], the IC50 was less than 1 nM.

For `COCC(=O)N[C@H]1CC[C@H](NC(=O)c2c(C)[nH]c3c(-c4cc(F)c(OC)cc4OCC4CC4)ncnc23)CC1` [Example E137, 4-[2-(Cyclopropylmethoxy)-5-fluoro-4-methoxyphenyl]-N-{trans-4-[(methoxyacetyl)amino]cyclohexyl}-6-methyl-5H-pyrrolo[3,2-d]pyrimidine-7-carboxamide], the IC50 was less than 1 nM.

As for `COc1cc(OCC2CC2)c(-c2ncnc3c(C(=O)N[C@H]4CC[C@@H](NC(C)=O)CC4)c(C)[nH]c23)cc1F` [Example E138, N-(cis-4-Acetamidocyclohexyl)-4-[2-(cyclopropylmethoxy)-5-fluoro-4-methoxyphenyl]-6-methyl-5H-pyrrolo[3,2-d]pyrimidine-7-carboxamide], the IC50 was less than 1 nM.

On to `CCC(=O)N[C@H]1CC[C@@H](NC(=O)c2c(C)[nH]c3c(-c4cc(F)c(OC)cc4OCC4CC4)ncnc23)CC1` [Example E139, 4-[2-(Cyclopropylmethoxy)-5-fluoro-4-methoxyphenyl]-6-methyl-N-[cis-4-(propionylamino)cyclohexyl]-5H-pyrrolo[3,2-d]pyrimidine-7-carboxamide], for which the IC50 is less than 1 nM.

For the compound `COCC(=O)N[C@H]1CC[C@@H](NC(=O)c2c(C)[nH]c3c(-c4cc(F)c(OC)cc4OCC4CC4)ncnc23)CC1` [Example E140, 4-[2-(Cyclopropylmethoxy)-5-fluoro-4-methoxyphenyl]-N-{cis-4-[(methoxyacetyl)amino]cyclohexyl}-6-methyl-5H-pyrrolo[3,2-d]pyrimidine-7-carboxamide], the IC50 is less than 1 nM.

In the case of `CCOC(=O)N[C@H]1CC[C@@H](NC(=O)c2c(C)[nH]c3c(-c4cc(F)c(OC)cc4OCC4CC4)ncnc23)CC1` [Example E141, Ethyl {cis-4-[({4-[2-(cyclopropylmethoxy)-5-fluoro-4-methoxyphenyl]-6-methyl-5H-pyrrolo[3,2-d]pyrimidin-7-yl}carbonyl)amino]cyclohexyl}carbamate], the IC50 was less than 1 nM.

Take `COCC(=O)N1CCC(NC(=O)c2c(C)[nH]c3c(-c4cc(C(C)C)ccc4OCC4CC4)ncnc23)CC1` [Example E158, 4-[2-(Cyclopropylmethoxy)-5-(propan-2-yl)phenyl]-N-[1-(methoxyacetyl)piperidin-4-yl]-6-methyl-5H-pyrrolo[3,2-d]pyrimidine-7-carboxamide]: the IC50 is 1 to 10 nM.

Turning to `CC(=O)N[C@H]1CC[C@@H](NC(=O)c2c(C)[nH]c3c(-c4cc(C(C)C)ccc4OCC4CC4)ncnc23)CC1` [Example E161, N-[cis-4-(Acetylamino)cyclohexyl]-4-[2-(cyclopropylmethoxy)-5-(propan-2-yl)phenyl]-6-methyl-5H-pyrrolo[3,2-d]pyrimidine-7-carboxamide], the IC50 was less than 1 nM.

As for `COCC(=O)N[C@H]1CC[C@@H](NC(=O)c2c(C)[nH]c3c(-c4cc(C(C)C)ccc4OCC4CC4)ncnc23)CC1` [Example E162, 4-[2-(Cyclopropylmethoxy)-5-(propan-2-yl)phenyl]-N-{cis-4-[(methoxyacetyl)amino]cyclohexyl}-6-methyl-5H-pyrrolo[3,2-d]pyrimidine-7-carboxamide], the IC50 is 1 to 10 nM.

Regarding `CC(=O)c1ccc(OCC2CC2)c(-c2ncnc3c(C(=O)NC4CCN(C(C)=O)CC4)c(C)[nH]c23)c1` [Example E163, 4-[5-Acetyl-2-(cyclopropylmethoxy)phenyl-]-N-(1-acetylpiperidin-4-yl)-6-methyl-5H-pyrrolo[3,2-d]pyrimidine-7-carboxamide], the IC50 was less than 1 nM.

Regarding `CCC(=O)N1CCC(NC(=O)c2c(C)[nH]c3c(-c4cc(C(C)=O)ccc4OCC4CC4)ncnc23)CC1` [Example E164, 4-[5-Acetyl-2-(cyclopropylmethoxy)phenyl]-6-methyl-N-(1-propanoylpiperidin-4-yl)-5H-pyrrolo[3,2-d]pyrimidine-7-carboxamide], the IC50 was less than 1 nM.

Turning to `COCC(=O)N1CCC(NC(=O)c2c(C)[nH]c3c(-c4cc(C(C)=O)ccc4OCC4CC4)ncnc23)CC1` [Example E165, 4-[5-Acetyl-2-(cyclopropylmethoxy)phenyl]-N-[1-(methoxyacetyl)piperidin-4-yl]-6-methyl-5H-pyrrolo[3,2-d]pyrimidine-7-carboxamide], the IC50 is less than 1 nM.

Take `CC(=O)N[C@H]1CC[C@H](NC(=O)c2c(C)[nH]c3c(-c4cc(C(C)=O)ccc4OCC4CC4)ncnc23)CC1` [Example E166, N-[trans-4-(Acetylamino)cyclohexyl]-4-[5-acetyl-2-(cyclopropylmethoxy)phenyl]-6-methyl-5H-pyrrolo[3,2-d]pyrimidine-7-carboxamide]: the IC50 is less than 1 nM.

`CCC(=O)N[C@H]1CC[C@H](NC(=O)c2c(C)[nH]c3c(-c4cc(C(C)=O)ccc4OCC4CC4)ncnc23)CC1` [Example E167, 4-[5-Acetyl-2-(cyclopropylmethoxy)phenyl]-6-methyl-N-[trans-4-(propanoylamino)cyclohexyl]-5H-pyrrolo[3,2-d]pyrimidine-7-carboxamide]: the IC50 was less than 1 nM.

Regarding `COCC(=O)N[C@H]1CC[C@H](NC(=O)c2c(C)[nH]c3c(-c4cc(C(C)=O)ccc4OCC4CC4)ncnc23)CC1` [Example E168, 4-[5-Acetyl-2-(cyclopropylmethoxy)phenyl]-N-{trans-4-[(methoxyacetyl)amino]cyclohexyl}-6-methyl-5H-pyrrolo[3,2-d]pyrimidine-7-carboxamide], the IC50 is less than 1 nM.

For the compound `COc1cc(OCC2CC2)c(-c2nc(C)nc3c(C(=O)NC4CCN(C(C)=O)CC4)c(C)[nH]c23)cc1F` [Example E172, N-(1-Acetylpiperidin-4-yl)-4-[2-(cyclopropylmethoxy)-5-fluoro-4-methoxyphenyl]-2,6-dimethyl-5H-pyrrolo[3,2-d]pyrimidine-7-carboxamide], the IC50 is less than 1 nM.
